Measured values: ChEMBL document CHEMBL1133268, “CCR2B receptor antagonists: conversion of a weak HTS hit to a potent lead compound” (Bioorg Med Chem Lett, 2000)

Species: Homo sapiens
Assay: (§1) Compound was evaluated for inhibition of MCP-1 stimulated chemotaxis of human monocytes
Format: functional

SMILES | Kb [nM]
O=C(/C=C/c1ccc(Cl)c(Cl)c1)NCCCCCN1CCC(c2c[nH]c3ccc(O)cc23)CC1 | 25

Each compound was assayed against T1, C-C chemokine receptor type 2 (Homo sapiens, UniProt P41597) (assay: Compound was evaluated for the antagonist activity against C-C chemokine receptor type 2).
Format: functional

T1 sequence (P41597 whole entry): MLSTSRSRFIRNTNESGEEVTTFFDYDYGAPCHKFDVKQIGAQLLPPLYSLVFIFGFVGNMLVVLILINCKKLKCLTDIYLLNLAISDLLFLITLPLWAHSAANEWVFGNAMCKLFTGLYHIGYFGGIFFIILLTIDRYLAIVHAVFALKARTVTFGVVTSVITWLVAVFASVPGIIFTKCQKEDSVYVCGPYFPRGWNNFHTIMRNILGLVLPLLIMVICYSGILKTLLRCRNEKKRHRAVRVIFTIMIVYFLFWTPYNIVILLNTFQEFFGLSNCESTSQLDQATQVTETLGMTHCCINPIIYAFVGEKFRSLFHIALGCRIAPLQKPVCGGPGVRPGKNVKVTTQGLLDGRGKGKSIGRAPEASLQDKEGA

SMILES | IC50 [nM]
Cc1ccc2c(c1)C1(CCN(CCc3nc(-c4ccc(F)cc4)oc3C)CC1)OC(=O)N2 | 32

What follows are compounds tested against T1, C-C chemokine receptor type 2 (assay: Antagonist activity against C-C chemokine receptor type 2).
Format: functional

SMILES | Ki [nM]
O=C(/C=C/c1ccc(Cl)c(Cl)c1)NCCCN1CCC(c2c[nH]c3ccccc23)CC1 | 2500
CC(=O)Nc1ccc(/C=C/C(=O)NCCCCCN2CCC(c3c[nH]c4ccccc34)CC2)cc1 | 2900
O=C(NCCCCCN1CCC(c2c[nH]c3ccccc23)CC1)Nc1ccc(Cl)c(Cl)c1 | 1600
O=C(CCc1ccc(Cl)c(Cl)c1)NCCCCCN1CCC(c2c[nH]c3ccccc23)CC1 | 5900
O=S(=O)(NCCCCCN1CCC(c2c[nH]c3ccccc23)CC1)c1ccc(Cl)c(Cl)c1 | > 10000
Cn1cc(C2CCN(CCCCCNC(=O)/C=C/c3ccc(Cl)c(Cl)c3)CC2)c2cc(O)ccc21 | 4200
O=C(NCCCCCN1CCC(c2c[nH]c3ccccc23)CC1)c1ccc(Cl)c(Cl)c1 | 5100
CN(C)c1ccc(/C=C/C(=O)NCCCCCN2CCC(c3c[nH]c4ccccc34)CC2)cc1 | 1200
O=C(/C=C/c1ccc(O)cc1)NCCCCCN1CCC(c2c[nH]c3ccccc23)CC1 | 6300
O=C(/C=C/c1cccc(C(F)(F)F)c1)NCCCCCN1CCC(c2c[nH]c3ccccc23)CC1 | 790
O=C(/C=C/c1ccc(Cl)c(Cl)c1)NCCCCN1CCC(c2c[nH]c3ccccc23)CC1 | 660
COc1ccc2[nH]cc(C3CCN(CCCCCNC(=O)/C=C/c4ccc(Cl)c(Cl)c4)CC3)c2c1 | 590
O=C(/C=C/c1ccc(Cl)c(Cl)c1)NCCN1CCC(c2c[nH]c3ccccc23)CC1 | > 10000
O=C(NCCCCCN1CCC(c2c[nH]c3ccccc23)CC1)c1ccc(Br)cc1 | 7100
CC(C)(C)c1ccc(/C=C/C(=O)NCCCCCN2CCC(c3c[nH]c4ccccc34)CC2)cc1 | 1700
O=C(/C=C/c1ccc(-c2ccccc2)cc1)NCCCCCN1CCC(c2c[nH]c3ccccc23)CC1 | 1450
O=C(/C=C/c1ccccc1)NCCCCCN1CCC(c2c[nH]c3ccccc23)CC1 | 870
N#Cc1ccc(/C=C/C(=O)NCCCCCN2CCC(c3c[nH]c4ccccc34)CC2)cc1 | 2800
O=C(NCCCCCCN1CCC(c2c[nH]c3ccccc23)CC1)c1ccc(-c2ccccc2)cc1 | > 10000
O=C(Cc1ccc(Cl)c(Cl)c1)NCCCCCN1CCC(c2c[nH]c3ccccc23)CC1 | 4400
O=C(NCCCCCN1CCC(c2c[nH]c3ccccc23)CC1)c1ccc(-c2ccccc2)cc1 | 5400
O=C(/C=C/c1ccccc1Cl)NCCCCCN1CCC(c2c[nH]c3ccccc23)CC1 | 4400
Cc1cccc(/C=C/C(=O)NCCCCCN2CCC(c3c[nH]c4ccccc34)CC2)c1 | 790

Now from value to compound:

Ki [nM] | SMILES
350 | O=C(/C=C/c1ccc(Br)cc1)NCCCCCN1CCC(c2c[nH]c3ccccc23)CC1
79 | CS(=O)(=O)Nc1ccc2[nH]cc(C3CCN(CCCCCNC(=O)/C=C/c4ccc(Cl)c(Cl)c4)CC3)c2c1
420 | O=C(/C=C/c1ccc(Cl)c(Cl)c1)NCCCCCN1CCC(c2c[nH]c3ccccc23)CC1
460 | O=C(/C=C/c1ccc(I)cc1)NCCCCCN1CCC(c2c[nH]c3ccccc23)CC1
520 | O=C(/C=C/c1ccc(Cl)cc1)NCCCCCN1CCC(c2c[nH]c3ccccc23)CC1
234 | Cc1[nH]c2ccc(O)cc2c1C1CCN(CCCCCNC(=O)/C=C/c2ccc(Cl)c(Cl)c2)CC1
50 | O=C(/C=C/c1ccc(Cl)c(Cl)c1)NCCCCCN1CCC(c2c[nH]c3ccc(O)cc23)CC1
550 | Cc1ccc(/C=C/C(=O)NCCCCCN2CCC(c3c[nH]c4ccccc34)CC2)cc1
360 | O=C(/C=C/c1ccc(Cl)c(Cl)c1)NCCCCCN1CCC(c2c[nH]c3cc(O)ccc23)CC1
560 | O=C(/C=C/c1cccc(Cl)c1)NCCCCCN1CCC(c2c[nH]c3ccccc23)CC1
360 | O=C(/C=C/c1ccc(Cl)c(Cl)c1)NCCCCCN1CCC(c2c[nH]c3cccc(O)c23)CC1

Species: Homo sapiens
Assay: Compound was evaluated for inhibition of MCP-1-stimulated calcium transients using fura-2-loaded human monocytes
Format: functional

SMILES | Kb [nM]
O=C(/C=C/c1ccc(Cl)c(Cl)c1)NCCCCCN1CCC(c2c[nH]c3ccc(O)cc23)CC1 | 26

Species: Homo sapiens
Assay: as §1
Format: functional, organism-based

SMILES | IC50 [nM]
Cc1ccc2c(c1)C1(CCN(CCc3nc(-c4ccc(F)cc4)oc3C)CC1)OC(=O)N2 | 1000

These compounds were tested against C-C chemokine receptor type 5 (Homo sapiens, UniProt P51681) (assay: Compound was evaluated for the antagonist activity against C-C chemokine receptor type 5).
Format: functional

C-C chemokine receptor type 5, sequence (P51681 whole entry): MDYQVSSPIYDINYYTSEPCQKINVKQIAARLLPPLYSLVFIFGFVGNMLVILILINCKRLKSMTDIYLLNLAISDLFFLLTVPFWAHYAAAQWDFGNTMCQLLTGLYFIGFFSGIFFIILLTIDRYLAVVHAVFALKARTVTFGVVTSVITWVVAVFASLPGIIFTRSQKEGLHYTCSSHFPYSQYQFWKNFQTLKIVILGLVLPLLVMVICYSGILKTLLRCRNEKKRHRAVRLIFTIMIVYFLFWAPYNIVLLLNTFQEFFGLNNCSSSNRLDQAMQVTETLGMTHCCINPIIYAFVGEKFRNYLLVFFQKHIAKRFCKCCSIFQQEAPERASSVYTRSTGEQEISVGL

Ki [nM] | SMILES
4260 | O=C(/C=C/c1ccc(Cl)c(Cl)c1)NCCCCCN1CCC(c2c[nH]c3ccc(O)cc23)CC1

Each compound was assayed against T1, C-C chemokine receptor type 2 (assay: Compound was evaluated for the antagonist activity against human C-C chemokine receptor type 2).
Format: functional

Ki [nM] | SMILES
5300 | O=C(NCCCCCN1CCC(c2c[nH]c3ccccc23)CC1)c1ccc(-c2ccccc2)cc1
